Results taken from patent US11384063B2, “Modulators of estrogen receptor proteolysis and associated methods of use” (Arvinas Operations, Inc., priority 2017, dated 2022).

These compounds were tested against T1, ERα (Homo sapiens, UniProt P03372) (assay: ERE luciferase reporter gene assay in T47D-KBluc cells (target engagement)). Conditions: 10% FBS, 24 hours, Table 1 cereblon centric PROTACs, read-out: ER-α Luciferase IC50.
T1 sequence (P03372 1-595): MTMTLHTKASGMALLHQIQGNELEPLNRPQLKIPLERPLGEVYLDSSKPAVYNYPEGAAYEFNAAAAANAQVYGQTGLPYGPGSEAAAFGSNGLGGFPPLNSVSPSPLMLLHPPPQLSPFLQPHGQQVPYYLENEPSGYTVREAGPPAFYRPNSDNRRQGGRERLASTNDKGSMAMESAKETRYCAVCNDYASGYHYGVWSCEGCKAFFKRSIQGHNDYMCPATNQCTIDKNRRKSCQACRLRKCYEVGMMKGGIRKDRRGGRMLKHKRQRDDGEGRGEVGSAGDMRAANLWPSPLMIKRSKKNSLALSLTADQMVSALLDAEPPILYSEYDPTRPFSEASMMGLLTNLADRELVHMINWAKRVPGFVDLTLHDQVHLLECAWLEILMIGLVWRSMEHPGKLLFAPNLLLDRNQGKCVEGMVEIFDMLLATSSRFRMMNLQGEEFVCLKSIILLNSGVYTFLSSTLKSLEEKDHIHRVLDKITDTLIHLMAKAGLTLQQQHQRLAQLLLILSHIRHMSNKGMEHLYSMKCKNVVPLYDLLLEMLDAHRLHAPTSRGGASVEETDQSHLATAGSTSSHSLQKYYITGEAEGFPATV
Type: cell-based
Set-up: T47D human breast cancer cells stably transfected with estrogen responsive element/promoter/luciferase reporter gene; host or cells: T47D-KBluc cells
Protocol: Chimeric molecules were assessed for target engagement in T47D cells using the commercial kit of ERE luciferase reporter gene assay. In the assay, 10% FBS was included and estrogen level was measured to be 10 pM.
ERE Luciferase Assay for Compounds in Table 1-3.
T47D-KBluc cells (ATCC #CRL_2865, T47D human breast cancer cells stably transfected with estrogen responsive element/promoter/luciferase reporter gene) were seeded into 96-well white opaque plates in RPMI growth medium supplemented with 10% fetal bovine serum and allowed to adhere overnight in a 37° C. humidified incubator. The following day, cells were treated with PROTACs in a 12-point concentration curve (top final concentration of 300 nM with subsequent concentrations being 3-fold less with 2 pM being the lowest concentration in the assay). Each PROTAC was tested independently in two experiments on 96-well plates. After 24 hours, media was removed and lysis buffer was added to the wells. Following lysis, Bright-Glo™ Luciferase Assay Substrate (Prornega, Madison Wis.) was added and the luciferase activity was measured using a Cytation 3 plate reader (TioTek™, Winooski, Vt.). Each compound was assayed in duplicates and the activity was calculated as IC50 using GraphPad Prism software (San Diego, Calif.).

| SMILES | IC50 |
| --- | --- |
| O=C1CCC(N2Cc3cc(NCCOCCOCCOc4ccc(Oc5c(-c6ccc(Br)cc6)sc6cc(O)ccc56)cc4)ccc3C2=O)C(=O)N1 (centres unmarked) [Compound 86] | 11 nM |
| O=C1CCC(N2Cc3cc(OCCCOCCCOc4ccc(Oc5c(-c6ccc(Br)cc6)sc6cc(O)ccc56)cc4)ccc3C2=O)C(=O)N1 (centres unmarked) [Compound 35] | 9.9 nM |
| O=C1CC[C@H](N2Cc3cc(OCCN4CC5(CN(CCOc6ccc(Oc7c(-c8ccc(Br)cc8)sc8cc(O)ccc78)cc6)C5)C4)ccc3C2=O)C(=O)N1 [Compound 41] | 2.4 nM |
| O=C1CCC(N2Cc3c(OCCOCCOCCOCCOc4ccc(Oc5c(-c6ccc(Br)cc6)sc6cc(O)ccc56)cc4)cccc3C2=O)C(=O)N1 (centres unmarked) [Compound 21] | 17.4 nM |
| Cc1nc2c(NCCN3CCN(CCOc4ccc(Oc5c(-c6ccc(Br)cc6)sc6cc(O)ccc56)cc4)CC3)cccc2c(=O)n1C1CCC(=O)NC1=O (centres unmarked) [Compound 14] | 17.7 nM |
| O=C1CCC(N2Cc3cc(NCCCC4CCN(CCOc5ccc(Oc6c(-c7ccc(Br)cc7)sc7cc(O)ccc67)cc5)CC4)ccc3C2=O)C(=O)N1 (centres unmarked) [Compound 64] | 2.9 nM |
| O=C1CCC(N2C(=O)c3cccc(NCCOCCOCCOCCOCCOc4ccc(Oc5c(-c6ccc(Br)cc6)sc6cc(O)ccc56)cc4)c3C2=O)C(=O)N1 (centres unmarked) [Compound 20] | 39.9 nM |
| O=C1CCC(N2Cc3cc(CCCOC4CCN(CCOc5ccc(Oc6c(-c7ccc(Br)cc7)sc7cc(O)ccc67)cc5)CC4)ccc3C2=O)C(=O)N1 (centres unmarked) [Compound 73] | 1.3 nM |
| O=C1CCC(N2C(=O)c3ccc(N4CCN(CCCCCCOc5ccc(Oc6c(-c7ccc(Br)cc7)sc7cc(O)ccc67)cc5)CC4)cc3C2=O)C(=O)N1 (centres unmarked) [Compound 51] | 26.2 nM |
| O=C1CCC(N2Cc3c(NCCOCCOCCOCCOCCOc4ccc(Oc5c(-c6ccc(Br)cc6)sc6cc(O)ccc56)cc4)cccc3C2=O)C(=O)N1 (centres unmarked) [Compound 18] | 81.4 nM |
| O=C1CCC(N2C(=O)c3ccc(N4CCN(CCOc5ccc(Oc6c(-c7ccc(Br)cc7)sc7cc(O)ccc67)cc5)CC4)cc3C2=O)C(=O)N1 (centres unmarked) [Compound 56] | 10.6 nM |
| O=C1CCC(N2Cc3cc(CCCCC(=O)N4CCN(CCOc5ccc(Oc6c(-c7ccc(Br)cc7)sc7cc(O)ccc67)cc5)CC4)ccc3C2=O)C(=O)N1 (centres unmarked) [Compound 47] | 0.86 nM |
| O=C1CCC(N2C(=O)c3ccc(NCCOCCOc4ccc(Oc5c(-c6ccc(Br)cc6)sc6cc(O)ccc56)cc4)cc3C2=O)C(=O)N1 (centres unmarked) [Compound 75] | 6.6 nM |
| O=C1CCC(N2C(=O)c3ccc(NCCOCCOCCOc4ccc(Oc5c(-c6ccc(Br)cc6)sc6cc(O)ccc56)cc4)cc3C2=O)C(=O)N1 (centres unmarked) [Compound 67] | 11.4 nM |
| O=C1CCC(N2Cc3c(OCCOCCOc4ccc(Oc5c(-c6ccc(Br)cc6)sc6cc(O)ccc56)cc4)cccc3C2=O)C(=O)N1 (centres unmarked) [Compound 17] | 2.9 nM |
| O=C1CCC(N2Cc3cc(N4CCN(CCCCOc5ccc(Oc6c(-c7ccc(Br)cc7)sc7cc(O)ccc67)cc5)CC4)ccc3C2=O)C(=O)N1 (centres unmarked) [Compound 58] | 6.6 nM |
| O=C1CCC(N2Cc3c(OCCN4CCN(CCOc5ccc(Oc6c(-c7ccc(Br)cc7)sc7cc(O)ccc67)cc5)CC4)cccc3C2=O)C(=O)N1 (centres unmarked) [Compound 7] | 1.1 nM |
| O=C1CCC(N2C(=O)c3ccc(OCCCOCCCOCCOc4ccc(Oc5c(-c6ccc(Br)cc6)sc6cc(O)ccc56)cc4)cc3C2=O)C(=O)N1 (centres unmarked) [Compound 87] | 21.5 nM |
| O=C1CCC(N2C(=O)c3cccc(NCCN4CCN(CCOc5ccc(Oc6c(-c7ccc(O)cc7)sc7cc(O)ccc67)cc5)CC4)c3C2=O)C(=O)N1 (centres unmarked) [Compound 3] | 0.14 nM |
| O=C1CCC(N2Cc3cc(OCCCOCCOCCOc4ccc(Oc5c(-c6ccc(Br)cc6)sc6cc(O)ccc56)cc4)ccc3C2=O)C(=O)N1 (centres unmarked) [Compound 43] | 6.1 nM |
| O=C1CCC(N2Cc3cc(OCCOCCOCCOc4ccc(Oc5c(-c6ccc(Br)cc6)sc6cc(O)ccc56)cc4)ccc3C2=O)C(=O)N1 (centres unmarked) [Compound 39] | 3.1 nM |
| O=C(CN1CCN(CCOc2ccc(Oc3c(-c4ccc(Br)cc4)sc4cc(O)ccc34)cc2)CC1)NCc1ccc2c(c1)CN(C1CCC(=O)NC1=O)C2=O (centres unmarked) [Compound 1] | 12.7 nM |
| O=C1CCC(N2Cc3c(NCCN4CCN(CCOc5ccc(Oc6c(-c7ccc(Br)cc7)sc7cc(O)ccc67)cc5)CC4)cccc3C2=O)C(=O)N1 (centres unmarked) [Compound 5] | 0.9 nM |
| O=C1CCC(N2C(=O)c3ccc(OCCCOCCCOc4ccc(Oc5c(-c6ccc(Br)cc6)sc6cc(O)ccc56)cc4)cc3C2=O)C(=O)N1 (centres unmarked) [Compound 77] | 34.1 nM |
| C[C@H](COc1ccc(Oc2c(-c3ccc(Br)cc3)sc3cc(O)ccc23)cc1)N1CCN(CC(=O)NCc2ccc3c(c2)CN(C2CCC(=O)NC2=O)C3=O)CC1 (stereo partly drawn) [Compound 11, 2-{4-[(2R)-1-(4-{[2-(4-bromophenyl)-6-hydroxy-1-benzothiophen-3-yl]oxy}phenoxy)propan-2-yl]piperazin-1-yl}-N-{[2-(2,6-dioxopiperidin-3-yl)-1-oxo-2,3-dihydro-1H-isoindol-5-yl]methyl}acetamide] | 2.6 nM |
| O=C1CCC(N2Cc3cc(OCCCOCCOc4ccc(Oc5c(-c6ccc(Br)cc6)sc6cc(O)ccc56)cc4)ccc3C2=O)C(=O)N1 (centres unmarked) [Compound 40] | 3.9 nM |
| O=C1CCC(N2C(=O)c3ccc(NCCCC4CCN(CCOc5ccc(Oc6c(-c7ccc(Br)cc7)sc7cc(O)ccc67)cc5)CC4)cc3C2=O)C(=O)N1 (centres unmarked) [Compound 68] | 5.9 nM |

Same assay, conditions: 10% FBS, 24 hours, Table 2 VHL centric PROTACs, read-out: IC50

| SMILES | IC50 |
| --- | --- |
| Cc1ncsc1-c1ccc(CNC(=O)[C@@H]2C[C@@H](O)CN2C(=O)[C@@H](NC(=O)CCCN2CC3CN(CCOc4ccc(Oc5c(-c6ccc(F)cc6)sc6cc(O)ccc56)cc4)CC3C2)C(C)(C)C)cc1 (some centres unmarked) [Compound 122] | > 100 nM |
| CC(C)(C)[C@H](NC(=O)Cc1ccc(-c2ccn(CCOc3ccc(Oc4c(-c5ccc(F)cc5)sc5cc(O)ccc45)cc3)n2)cc1)C(=O)N1C[C@H](O)C[C@H]1C(=O)NCc1ccc(C#N)cc1 [Compound 145] | 97 nM |
| Cc1ncoc1-c1ccc([C@H](C)NC(=O)[C@@H]2C[C@@H](O)CN2C(=O)[C@@H](NC(=O)COCCOCCOCCOc2ccc(Oc3c(-c4ccc(Cl)cc4)sc4cc(O)ccc34)cc2)C(C)(C)C)cc1 [Compound 120] | 4.1 nM |
| COc1ccc2c(Oc3ccc(OCCN4CCN(CCOCC(=O)N[C@H](C(=O)N5C[C@H](O)C[C@H]5C(=O)N[C@@H](C)c5ccc(-c6scnc6C)cc5)C(C)(C)C)CC4)cc3)c(-c3ccc(Br)cc3)sc2c1 [Compound 155] | > 100 nM |
| COc1ccc2c(Oc3ccc(OCCN4CCN(CCOCC(=O)N[C@H](C(=O)N5C[C@H](O)C[C@H]5C(=O)NCc5ccc(-c6scnc6C)cc5)C(C)(C)C)CC4)cc3)c(-c3ccc(Br)cc3)sc2c1 [Compound 154] | > 100 nM |
| CC(C)(C)[C@H](NC(=O)COCCOCCOCCOc1ccc(Oc2c(-c3ccc(F)cc3)sc3cc(O)ccc23)cc1)C(=O)N1C[C@H](O)C[C@H]1C(=O)NCc1ccc(C#N)cc1 [Compound 136] | 1.5 nM |

Same assay, conditions: 10% FBS, 24 hours, Table 3 cereblon centric PROTACs, read-out: ER-α Luciferase IC50

| SMILES | IC50 |
| --- | --- |
| O=C1CCC(N2Cc3cc(N4CCN(C5CC6(C5)CN(CCOc5ccc(Oc7c(-c8ccc(C(F)(F)F)cc8)sc8cc(O)ccc78)cc5)C6)CC4)ccc3C2=O)C(=O)N1 (centres unmarked) [Compound 198] | 10.2 nM |
| O=C1CCC(N2Cc3c(cc(F)c(N4CCN(C5CCN(CCOc6ccc(Oc7c(-c8ccc(C(F)(F)F)cc8)sc8cc(O)ccc78)cc6)CC5)CC4)c3F)C2=O)C(=O)N1 (centres unmarked) [Compound 203] | 4.7 nM |
| O=C1CCC(N2Cc3cc(N4CCN(CCCOc5ccc(Oc6c(-c7ccc(C(F)(F)F)cc7)sc7cc(O)ccc67)cc5)CC4)ccc3C2=O)C(=O)N1 (centres unmarked) [Compound 207] | 11.4 nM |
| O=C1CCC(N2Cc3cc(N4CCN(CCOc5ccc(Oc6c(-c7ccc(Br)cc7)sc7cc(O)ccc67)cc5)CC4)ccc3C2=O)C(=O)N1 (centres unmarked) [Compound 210] | 2.3 nM |
| O=C1CCC(N2C(=O)c3ccc(OCCCOCCCOCCCCOc4ccc(Oc5c(-c6ccc(Br)cc6)sc6cc(O)ccc56)cc4)cc3C2=O)C(=O)N1 (centres unmarked) [Compound 175] | 66.7 nM |
| O=C1CCC(N2Cc3cc(N4CCN(CCCOc5ccc(Oc6c(-c7ccc(Br)cc7)sc7cc(O)ccc67)cc5)CC4)cc(F)c3C2=O)C(=O)N1 (centres unmarked) [Compound 222] | 8.9 nM |
| O=C1CCC(N2Cc3c(ccc(N4CCN(CCCOc5ccc(Oc6c(-c7ccc(Br)cc7)sc7cc(O)ccc67)cc5)CC4)c3F)C2=O)C(=O)N1 (centres unmarked) [Compound 208] | 8.4 nM |
| O=C1CCC(N2C(=O)c3ccc(NCCCOCCCOCCCCOc4ccc(Oc5c(-c6ccc(Br)cc6)sc6cc(O)ccc56)cc4)cc3C2=O)C(=O)N1 (centres unmarked) [Compound 176] | 28.7 nM |
